For assay [1], the species on record is Homo sapiens. The assay can be described thus: Concentration required to inhibit collagen-induced platelet aggregation by 50 % (>10 uM); IA means inactive. In kind it is functional.
The species entered for assay [2] is Homo sapiens. As to the kind of experiment: Concentration required to inhibit collagen-induced platelet aggregation by 50 %. It counts as functional.

Results on five molecules are retold here after ChEMBL document CHEMBL1125963, “Triply-convergent synthesis of a homochiral 3,3-dimethyl, 15-cyclohexyl prostacyclin analog” (Bioorg Med Chem Lett, 1991).

Consider `CCC#CC[C@H](C)[C@H](O)C#C[C@@H]1[C@H]2C/C(=C/COCC(=O)O)C[C@H]2C[C@H]1O` [CICAPROST], for which the IC50 (as a rule, the midpoint of a concentration-inhibition curve) in assay [1] is on record as “Not Active”.
Take `CC(C)(C/C=C1\C[C@H]2C[C@@H](O)[C@H](C#C[C@@H](O)C3CCCCC3)[C@H]2C1)CCO`: the IC50 entry in assay [1] is given as “Not Active”.
On the same count and under the same terms, in the case of `CCCCC[C@H](O)/C=C/[C@@H]1[C@H]2C/C(=C/CCCC(=O)O)C[C@H]2C[C@H]1O` it was “Not Active”.
As for `CC(C)(C/C=C1\C[C@H]2C[C@@H](O)[C@H](C#C[C@H](O)C3CCCCC3)[C@H]2C1)CC(=O)O`, in assay [2], the midpoint of inhibition, the IC50, lay at 480 nM.
As for `O=C(O)COc1cccc2c1C[C@H]1C[C@@H](O)[C@H](CC[C@@H](O)C3CCCCC3)[C@H]1C2`, the IC50 result in assay [1] was “Not Active”.
